The subject of this assay is glucocorticoid-treated rats. Put plainly: Biochemical tests of serum bone parameters in treatment groups of osteoporotic (prednisolone) rats. Format: in vivo, rat.
The mark [1] stands for this setting: serum, * = significant difference with prednisolone group.

Experimental findings from patent US20210015749A1, “NANOCOCHLEATE FORMULATION AND METHOD OF PREPARING THE NANOCOCHLEATE FORMULATION” (priority 2019, published 2021) are described below.

In turn, Vitamin D displayed a Ph (serum phosphorus) of 7.525 ± 0.4272. Besides, under setting [1], the Bone-ALP was determined as 312 ± 24.42, the Ca is reported as 9.367 ± 0.3786, the OPG is reported as 3.325 ± .9012 and the Osteocalcin was 16.5 ± 2.121.
